US20110038952A1, “GAMBOGIC ACID GLYCOSIDE DERIVATIVES AND ANALOGS, THEIR PREPARATION METHODS AND APPLICATIONS” (priority 2007, published 2011)

Key:
[1] = tested on: mice sarcoma S180; test: Growth inhibition of S180 sarcoma in mice; assay type: in vivo
Text: (§1) Test samples: example compounds 18, 24, 25, 26 and 27
(§2) Test animals: Kunming kinds of healthy mice (19-21 g), 10 mice (5 male and 5 female)/group, from Beijing Institute of Military Medical Sciences Animal Center.
(§3) Tumor strains: mice sarcoma S180 for ascites passaged from Beijing Academy of Military Medical Institute of Pharmacology.
(§4) Xenografts cultured S180 tumor cells were implanted subcutaneously into the flank region of mice and tumors were allowed to grow to the desired average size of 100 mg. The mice were randomized into control and treatment groups with 10 mice per group. The control group was injected with the vehicle used to dissolve the drug. Other groups received the test compounds (example compound 18, 24, 25, 26 and 27) and positive group, cyclophosphamide (CTX) and 5-fluorouracil (5-FU) at the dose and schedule as indicated in Table VI. Injections were I.V. via the tail vein.

[2] = tested on: human colorectal cancer cell line HT29; test: In vitro anti-cancer cell experiment (MTT), HT29; assay type: cell-based; settings: for IC50 (50% inhibition of cell viability, MTT): HT29, P<0.05
Method: (§5) a. Cell lines: Human pancreatic cancer cell line Panc-1, human colorectal cancer cell line HT29 and human lung cancer cell line NCI-H460; the medium: s DMEM (Gibco BRL), containing 10% fetal calf serum (Gibco BRL) and 2 mM L-glutamine (Gibco BRL).
(§6) b. Test samples: example compounds 3, 18, 25 and 27.
(§7) The samples were dissolved in dimethyl sulfoxide (DMSO, Sigma, United States) and medium was added to the final concentration of 0.5%. Cisplatin was as positive control of (CDDP, purity 96%, from Kunming Institute of Precious Metals).
(§8) c. Method: cells were digested with trypsin and dispersed into single cells in the medium containing penicillin (25 U/ml) and streptomycin (25 μg/ml). The cells were seeded in 96-well culture plates (Corning Incorporated), at 37° C., in a humidified atmosphere with 5% CO2 present for 24 hours. The culture medium was removed, […] test compounds were added, cultured for 48 hours. Culture medium was removed and […] (MTT, USA Sigma products) was added. The result was assayed by SK601-based microplate reader (Japan Seikagaku company's products), 570 nm/630 nm optical density (OD).
(§9) Calculation of cell viability: (Experimental group OD/control OD)×100%; Positive control CDDP was treated in the same way.

[3] = Body weight of mice in the S180 sarcoma study
Text: as §1, §2, §3, §4

[4] = tested on: Human pancreatic cancer cell line Panc-1; test: In vitro anti-cancer cell experiment (MTT), Panc-1; assay type: cell-based
Method: as §5, §6, §7, §8, §9

[5] = tested on: human lung cancer cell line NCI-H460; test: In vitro anti-cancer cell experiment (MTT), NCI-H460; assay type: cell-based; settings: NCI-H460, P<0.05
Method: as §5, §6, §7, §8, §9

[6] = Chronic toxicity, 30 days, mice
Method: Animals were given an injection in the tail vein with approximately 100 μl volume of compound formulation or vehicle formulation. Mice body weights were measured daily along with daily observation for 30 days.
(1) The general behavior, body weight and organ weight of animal.
(2) Blood test: white blood cells (WB), red blood cells (RB), hemoglobin (Hb), alanine aminotransferase (ALT), aspartate aminotransferase (AST), alkaline phosphatase (ALP), serum uric acid (UA), blood urea (UREA) and creatinine (Cr).
(3) Pathological examination: heart, liver, spleen, lung and kidney.

[7] = S180 mice, I.V. tail vein, 1 mg/kg
[8] = S180 mice, I.V. tail vein, 2 mg/kg
[9] = S180 mice, I.V. tail vein, 4 mg/kg
[10] = S180 mice, 24 one dose, 25 three doses, 26 three doses, 27 one dose
[11] = S180 mice, I.V. tail vein, 25 mg/kg
[12] = S180 mice, I.V. tail vein, 15 mg/kg
[13] = S180 mice, I.V. tail vein, 5 mg/kg
[14] = S180 mice, I.V. tail vein, 10 mg/kg
[15] = S180 mice, I.V. tail vein, 8 mg/kg
[16] = S180 mice, I.V. tail vein, 12 mg/kg
[17] = mice, tail vein, 2, 4 and 8 mg/kg, 30 days, vs control group

9,10-Dihydro-10-(N-methyl-1-naphthoylamino) gambogyl (N-methyl)-1-naphthoylamine [Example 25]
Inhibition rate (%) [1, 7]: 44.6% | Tumor weight [1, 7]: 1.34 ± 0.47 g | Inhibition rate (%) [1, 8]: 58.3% | Tumor weight [1, 8]: 1.00 ± 0.34 g | Inhibition rate (%) [1, 9]: 65.2% | Tumor weight [1, 9]: 0.84 ± 0.35 g | anti-tumor efficacy (in vivo), statistical significance [1, 10]: statistically significant | IC50 (50% inhibition of cell viability, MTT) [2]: 3.75 µg/mL | body weight/g After ad. ([3]; mouse, in vivo, iv, 1 mg/kg): 24.75 ± 2.56 g | body weight/g Before ad. ([3]; mouse, in vivo, iv, 1 mg/kg): 22.59 ± 1.36 g | body weight/g Without tumor ([3]; mouse, in vivo, iv, 1 mg/kg): 23.27 ± 2.16 g | body weight/g After ad. ([3]; mouse, in vivo, iv, 2 mg/kg): 22.75 ± 3.51 g | body weight/g Before ad. ([3]; mouse, in vivo, iv, 2 mg/kg): 22.36 ± 1.30 g | body weight/g Without tumor ([3]; mouse, in vivo, iv, 2 mg/kg): 21.69 ± 3.13 g | body weight/g After ad. ([3]; mouse, in vivo, iv, 4 mg/kg): 21.47 ± 3.69 g | body weight/g Before ad. ([3]; mouse, in vivo, iv, 4 mg/kg): 22.38 ± 1.80 g | body weight/g Without tumor ([3]; mouse, in vivo, iv, 4 mg/kg): 20.77 ± 3.37 g

O=P1(N(CCCl)CCCl)NCCCO1 (centres unmarked) [CTX, cyclophosphamide, reference compound]
Inhibition rate (%) [1, 11]: 48.6% | Tumor weight [1, 11]: 1.24 ± 0.50 g | body weight/g Without tumor [3, 11]: 23.94 ± 2.60 g | body weight/g After ad. ([3]; S180 mice, I.V. tail vein, 25 mg/kg, after administration): 25.44 ± 2.92 g | body weight/g Before ad. ([3]; S180 mice, I.V. tail vein, 25 mg/kg, before administration): 22.64 ± 1.28 g

CC(C)=CCCC1(C)C=Cc2c(O)c3c(c(CC=C(C)C)c2O1)OC12C(=C[C@H]4CC1C(C)(C)OC2(C/C=C(/C)C(=O)OCCO)C4=O)C3=O (some centres unmarked) [Example 3, Ethylene Glycol Gambogate]
IC50 (the compound concentration producing 50% inhibition of colony formation) on Panc-1 ([4]; Panc-1, P<0.05): 23.4 µg/mL | IC50 (the compound concentration producing 50% inhibition of colony formation) on NCI-H460 [5]: 6.18 µg/mL

O=c1[nH]cc(F)c(=O)[nH]1 [Example 5-FU, 5-fluorouracil, reference compound]
Inhibition rate (%) [1, 12]: 43.2% | Tumor weight [1, 12]: 1.37 ± .033 g | IC50 ([4]; Homo sapiens, Panc-1, 48 hours, MTT): 193 µM | IC50 ([2]; Homo sapiens, HT-29, HT29, 48 hours, MTT, second of two HT29 columns): 92.3 µM | body weight/g After ad. ([3]; mouse, in vivo, iv, 15 mg/kg): 28.66 ± 2.89 g | body weight/g Before ad. ([3]; mouse, in vivo, iv, 15 mg/kg): 23.07 ± 1.75 g | body weight/g Without tumor ([3]; mouse, in vivo, iv, 15 mg/kg): 27.19 ± 2.88 g

CCCCCN(CCCCC)C(=O)/C(C)=C\CC12OC(C)(C)C3C[C@H](C=C4C(=O)c5c(O)c6c(c(CC=C(C)C)c5OC431)OC(C)(CCC=C(C)C)C=C6)C2=O (some centres unmarked) [Example 18, Gambogyl Dipentylamine]
Inhibition rate (%) [1, 13]: 40.3% | Tumor weight [1, 13]: 1.44 ± 0.39 g | Inhibition rate (%) [1, 14]: 52.5% | Tumor weight [1, 14]: 1.14 ± 0.42 g | body weight/g After ad. ([3]; mouse, in vivo, iv, 5 mg/kg): 27.91 ± 4.08 g | body weight/g Before ad. ([3]; mouse, in vivo, iv, 5 mg/kg): 22.80 ± 1.73 g | body weight/g Without tumor ([3]; mouse, in vivo, iv, 5 mg/kg): 26.49 ± 4.62 g | body weight/g After ad. ([3]; mouse, in vivo, iv, 10 mg/kg): 26.08 ± 2.8 g | body weight/g Before ad. ([3]; mouse, in vivo, iv, 10 mg/kg): 27.32 ± 2.2 g | body weight/g Without tumor ([3]; mouse, in vivo, iv, 10 mg/kg): 25.06 ± 2.09 g | IC50 (the compound concentration producing 50% inhibition of colony formation) on NCI-H460 [5]: 4.73 µg/mL

COC(=O)/C(C)=C\CC12OC(C)(C)C3C[C@H](C=C4C(=O)c5c(OC6O[C@H](CO)[C@@H](O)[C@@H](O)[C@H]6O)c6c(c(CC=C(C)C)c5OC431)OC(C)(CCC=C(C)C)C=C6)C2=O (stereo partly drawn) [Example 24, Methyl-6-O-D-allosyl gambogate]
Inhibition rate (%) [1, 14]: 61.0% | Tumor weight [1, 14]: 0.94 ± 0.26 g | anti-tumor efficacy (in vivo), statistical significance [1, 10]: statistically significant | body weight/g After ad. ([3]; mouse, in vivo, iv, 10 mg/kg): 19.77 ± 1.88 g | body weight/g Before ad. ([3]; mouse, in vivo, iv, 10 mg/kg): 21.67 ± 1.26 g | body weight/g Without tumor ([3]; mouse, in vivo, iv, 10 mg/kg): 18.89 ± 1.45 g

COC(=O)/C(C)=C\CC12OC(C)(C)C3C[C@H](C=C4C(=O)c5c(OC(=O)c6ccc(OC7O[C@H](CO)[C@@H](O)[C@@H](O)[C@H]7O)cc6)c6c(c(CC=C(C)C)c5OC431)OC(C)(CCC=C(C)C)C=C6)C2=O (stereo partly drawn) [Example 26, Methyl-6-(4-O-D-allosyl)benzoyl gambogate]
Inhibition rate (%) [1, 9]: 53.7% | Tumor weight [1, 9]: 1.12 ± 0.40 g | Inhibition rate (%) [1, 15]: 60.2% | Tumor weight [1, 15]: 0.96 ± 0.32 g | Inhibition rate (%) [1, 16]: 69.3% | Tumor weight [1, 16]: 0.74 ± 0.11 g | anti-tumor efficacy (in vivo), statistical significance [1, 10]: statistically significant | alanine aminotransferase (ALT) ([6]; high dose group, recovery to normal level): slightly incretion | Pathological examination: heart [6, 17]: no abnormal of heart tissue | Pathological examination: liver [6, 17]: no abnormal tissue in rat liver slices | Pathological examination: lung [6, 17]: no abnormal tissue in rat lung slices | Pathological examination: renal [6, 17]: no abnormal tissue in rat renal slices | Pathological examination: spleen [6, 17]: no abnormal tissue in rat spleen slices | toxic pathological changes of the heart, liver, spleen, lung and kidney ([6]; three dose mice groups, continuous administration for 30 days): no toxic pathological changes | body weight/g After ad. ([3]; mouse, in vivo, iv, 4 mg/kg): 23.71 ± 3.85 g | body weight/g Before ad. ([3]; mouse, in vivo, iv, 4 mg/kg): 25.89 ± 2.62 g | body weight/g Without tumor ([3]; mouse, in vivo, iv, 4 mg/kg): 22.54 ± 3.42 g | body weight/g After ad. ([3]; mouse, in vivo, iv, 8 mg/kg): 21.42 ± 0.88 g | body weight/g Before ad. ([3]; mouse, in vivo, iv, 8 mg/kg): 24.41 ± 2.28 g | body weight/g Without tumor ([3]; mouse, in vivo, iv, 8 mg/kg): 20.56 ± 0.54 g | body weight/g After ad. ([3]; mouse, in vivo, iv, 12 mg/kg): 26.71 ± 5.56 g | body weight/g Before ad. ([3]; mouse, in vivo, iv, 12 mg/kg): 25.58 ± 2.48 g | body weight/g Without tumor ([3]; mouse, in vivo, iv, 12 mg/kg): 26.07 ± 5.40 g

CC(C)=CCCC1(C)C=Cc2c(c(CC=C(C)C)c3c(c2OC(=O)c2ccc(OC4O[C@H](CO)[C@@H](O)[C@@H](O)[C@H]4O)cc2)C(=O)C2=C[C@H]4CC5C(C)(C)OC(C/C=C(/C)C(=O)N(C)Cc6cccc7ccccc67)(C4=O)C25O3)O1 (stereo partly drawn) [Example 27, 6-(4-O-D-Allosylbenzoyl) gambogyl (N-methyl-1-naphthalene) methylamine]
anti-tumor efficacy (in vivo), statistical significance ([1]; mouse, in vivo): statistically significant | Inhibition rate (%) ([1]; mouse, in vivo, iv, 25 mg/kg): 32.5% | Tumor weight ([1]; mouse, in vivo, iv, 25 mg/kg): 1.63 ± 0.47 g | Inhibition rate (%) ([1]; mouse, in vivo, iv, 30 mg/kg): 37.0% | Tumor weight ([1]; mouse, in vivo, iv, 30 mg/kg): 1.52 ± 0.30 g | IC50 (50% inhibition of cell viability, MTT) [2]: 1.19 µg/mL | body weight/g After ad. ([3]; mouse, in vivo, iv, 25 mg/kg): 20.83 ± 1.36 g | body weight/g Before ad. ([3]; mouse, in vivo, iv, 25 mg/kg): 20.90 ± 1.06 g | body weight/g Without tumor ([3]; mouse, in vivo, iv, 25 mg/kg): 19.00 ± 1.39 g | body weight/g After ad. ([3]; mouse, in vivo, iv, 30 mg/kg): 20.22 ± 2.11 g | body weight/g Before ad. ([3]; mouse, in vivo, iv, 30 mg/kg): 19.07 ± 1.40 g | body weight/g Without tumor ([3]; mouse, in vivo, iv, 30 mg/kg): 18.67 ± 2.08 g
